What was measured:
CDK1 = target: T1, CDK1 (Homo sapiens, UniProt P06493); test: CDK-1 kinase screening assay (33P-ATP FlashPlate); format: biochemical; conditions: 10 μM ATP, biotinylated histone-H1 peptide substrate, 1 hr at 30° C.
T1 construct: purchased New England Biolabs, Beverly, Mass; 6020; host or cells: insect cells
Experimental: (§1) A kinase reaction mixture was prepared containing 50 mM Tris-HCl pH=8, 10 mM MgCl2, 0.1 mM […], 1 mM DTT, 10 μM ATP, 0.025 μM biotinylated histone-H1 peptide substrate and 0.2 μCuries per well ^33P-γ-ATP (2000-3000 Ci/mmol). 70 μL of the kinase reaction mixture was dispensed into the well of a streptavidin coated FlashPlate™ (Cat. # SMP103, NEN, Boston, Mass.).
(§2) Test compound stock in 100% DMSO (1 μL) was added to the wells resulting in a final concentration of 1% DMSO in the reaction with a 100 μL final reaction volume. Each enzyme was diluted in 50 mM Tris-HCl pH=8.0, 0.1% BSA and 30 μL was added to each well to initiate the reaction. The reaction was incubated for one hour at 30° C. At the end of the 1 hr incubation, the reaction was terminated by aspirating the mixture from the plate and washing the wells twice with PBS containing 100 mM EDTA. The biotinylated peptide substrate became immobilized on the Flashplate™ and the incorporation of ^33P-γ-ATP was measured by reading the plate on a scintillation counter. Inhibition of the enzymatic activity was measured by observing a reduced amount of ^33P-γ-ATP incorporated into the immobilized peptide.
The CDK1 enzyme was isolated from insect cells expressing both the human CDK1 catalytic subunit (Accession number NM_001786) and its positive regulatory subunit cyclin B (New England Biolabs, Beverly, Mass.; Cat. # 6020). The assay used 30 ng of the N-terminal biotinylated peptide biotin-[…]-amide (Cyclin dependent kinase 1) per well.
(§3) Aurora-A is a fusion protein containing a polyhistidine tag at the N terminus followed by the full length protein encoding the murine Aurora-A (Accession number GB BC014711) expressed and purified from sf9 insect cells. The assay used 400 ng of the N-terminal biotinylated peptide biotin-[…]-amide (Aurora-A) per well. A maximum and minimum signal for the assay was determined on each plate. The percent inhibition of a test compound was calculated according to the formula: […]
(§4) For a series of test concentrations, the IC50 was derived by graphing percent inhibition against the log of the concentrations tested for a given compound with results shown in Table 1.

HER2 = target: T2, HER2 (Homo sapiens, UniProt P04626); test: HER2 kinase screening assay (33P-ATP FlashPlate); format: biochemical; conditions: 10 μM ATP, biotin-poly(GT) 4:1 substrate, 1 hr at 30° C.
T2 construct: GST (Glutathione-S-Transferase) (N); HIS6 (N); Thrombin cleavage site (N); purchased Proqinase, Freiburg, Germany
Experimental: as §1, §2
The HER2 construct consisted of a fusion of GST (Glutathione-S-Transferase), HIS6 Thrombin and the nucleotides encoding amino acids 679 to 1255 of HER-2 (Accession number M11730) (Proqinase, Freiburg, Germany). The assay used 200 ng of the N-terminal biotinylated peptide biotin-poly(GT) 4:1 (HER2) per well.
as §3, §4

VEGFR2 = target: T3, VEGFR2 (Rattus norvegicus, UniProt O08775); test: VEGFR2 kinase screening assay (33P-ATP FlashPlate); format: biochemical; conditions: 10 μM ATP, rat VEGF-R2 kinase domain, 1 hr at 30° C.
T3 construct: polyhistidine (N)

Aurora-A = target: T4, Aurora-A (Mus musculus, UniProt P97477); test: Aurora-A kinase screening assay (33P-ATP FlashPlate); format: biochemical; conditions: 10 μM ATP, murine full length Aurora-A, 1 hr at 30° C.
T4 construct: followed by the full length protein encoding the murine Aurora-A; polyhistidine (N); made in house; host or cells: sf9 insect cells
T4 sequence (P97477 1-395): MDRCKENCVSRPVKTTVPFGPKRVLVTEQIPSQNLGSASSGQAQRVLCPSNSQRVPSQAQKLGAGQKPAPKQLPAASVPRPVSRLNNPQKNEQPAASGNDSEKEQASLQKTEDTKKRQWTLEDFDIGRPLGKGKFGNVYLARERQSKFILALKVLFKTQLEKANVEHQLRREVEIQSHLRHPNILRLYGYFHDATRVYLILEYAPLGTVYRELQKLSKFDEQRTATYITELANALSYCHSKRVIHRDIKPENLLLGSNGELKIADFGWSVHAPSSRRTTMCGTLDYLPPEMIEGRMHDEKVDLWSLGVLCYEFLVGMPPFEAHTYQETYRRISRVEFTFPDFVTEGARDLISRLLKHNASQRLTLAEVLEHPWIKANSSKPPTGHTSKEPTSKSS

A375 malignant melanoma = test: Cell proliferation inhibition assay (14C-thymidine incorporation), A375; format: cell-based; conditions: Homo sapiens, A-375, A375 cells
Excerpt: (§5) The ability of a test compound to inhibit unregulated cell proliferation may be determined by measuring incorporation of ^14C-labelled thymidine into newly synthesized DNA within cell lines derived from carcinomas originating from several tissues. Accordingly, the anti-proliferative effect of a compound on cells with a variety of phenotypes may be determined.
(§6) Carcinoma cell lines include those such as HeLa cervical adenocarcinoma (American Type Culture Collection (ATCC), Virginia, Cat. #CCL-2), A375 malignant melanoma (ATCC CRL-1619), and HCT-116 colon carcinoma (CCL-247).
(§7) The carcinoma cells are trypsinized and counted. The cells (3000-8000 count) are added to each well of a 96-well CytoStar tissue culture treated scintillating microplate (Amersham #RPNQ0160) in complete medium (100 μL) and the plate is then incubated in complete medium for 24 hrs at 37° C. in an inert atmosphere containing 5% CO2. Test compound (1 μL) in 100% DMSO is added to the plate test-wells with DMSO only added to control-wells. The plate is incubated in complete medium for a second 24 hr period at 37° C. in an atmosphere containing 5% CO2.
(§8) An aliquot of a solution of Methyl ^14C-thymidine (56 mC/mmol) (NEN #NEC568 or Amersham #CFA532) and complete medium (20 uL to provide 0.2 μCi/well) is then added to each well and the plate is incubated for a third 24 hr period at 37° C. in an atmosphere containing 5% CO2. The plate contents are then discarded, the plate is washed twice with PBS (200 μL) and then PBS (200 μL) is added to each well. The plate is sealed and the degree of methyl ^14C-thymidine incorporation is quantified on a Packard Top Count.
(§9) A maximum and minimum signal for the assay was determined on each plate. The percent inhibition of a test compound was calculated according to the formula: […]
(§10) For a series of test concentrations, the IC50 was derived by graphing percent inhibition against the log of the concentrations tested for a given compound with results shown in Table 3.

HCT-116 colon carcinoma = test: Cell proliferation inhibition assay (14C-thymidine incorporation), HCT-116; format: cell-based; conditions: Homo sapiens, HCT-116 cells
Excerpt: as §5, §6, §7, §8, §9, §10

[1] = tested on: HeLa cervical adenocarcinoma; test: Cell proliferation inhibition assay (14C-thymidine incorporation), HeLa; format: cell-based; conditions: Homo sapiens, HeLa cells
Excerpt: as §5, §6, §7, §8, §9, §10

T1 sequence (P06493 whole entry): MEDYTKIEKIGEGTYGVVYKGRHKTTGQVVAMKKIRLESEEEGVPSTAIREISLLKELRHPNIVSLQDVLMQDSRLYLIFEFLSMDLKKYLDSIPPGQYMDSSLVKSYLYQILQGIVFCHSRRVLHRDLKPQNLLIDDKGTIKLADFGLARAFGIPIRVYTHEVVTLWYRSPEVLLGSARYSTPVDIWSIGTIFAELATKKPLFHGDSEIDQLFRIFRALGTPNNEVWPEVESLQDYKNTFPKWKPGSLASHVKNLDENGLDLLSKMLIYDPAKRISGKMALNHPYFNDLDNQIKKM
T1 sequence (P14635 whole entry partner): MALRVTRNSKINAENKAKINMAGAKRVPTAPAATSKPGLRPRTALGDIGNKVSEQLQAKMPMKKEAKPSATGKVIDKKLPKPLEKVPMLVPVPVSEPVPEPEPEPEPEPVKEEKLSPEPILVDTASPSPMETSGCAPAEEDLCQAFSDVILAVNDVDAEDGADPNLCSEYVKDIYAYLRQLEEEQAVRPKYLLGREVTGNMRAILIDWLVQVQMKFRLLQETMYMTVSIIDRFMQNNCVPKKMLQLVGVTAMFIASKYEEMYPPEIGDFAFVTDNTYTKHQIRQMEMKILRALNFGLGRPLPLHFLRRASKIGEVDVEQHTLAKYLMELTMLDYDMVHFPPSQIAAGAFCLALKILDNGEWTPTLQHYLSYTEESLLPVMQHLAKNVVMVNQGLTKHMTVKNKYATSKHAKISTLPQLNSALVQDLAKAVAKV
T2 sequence (P04626 679-1255): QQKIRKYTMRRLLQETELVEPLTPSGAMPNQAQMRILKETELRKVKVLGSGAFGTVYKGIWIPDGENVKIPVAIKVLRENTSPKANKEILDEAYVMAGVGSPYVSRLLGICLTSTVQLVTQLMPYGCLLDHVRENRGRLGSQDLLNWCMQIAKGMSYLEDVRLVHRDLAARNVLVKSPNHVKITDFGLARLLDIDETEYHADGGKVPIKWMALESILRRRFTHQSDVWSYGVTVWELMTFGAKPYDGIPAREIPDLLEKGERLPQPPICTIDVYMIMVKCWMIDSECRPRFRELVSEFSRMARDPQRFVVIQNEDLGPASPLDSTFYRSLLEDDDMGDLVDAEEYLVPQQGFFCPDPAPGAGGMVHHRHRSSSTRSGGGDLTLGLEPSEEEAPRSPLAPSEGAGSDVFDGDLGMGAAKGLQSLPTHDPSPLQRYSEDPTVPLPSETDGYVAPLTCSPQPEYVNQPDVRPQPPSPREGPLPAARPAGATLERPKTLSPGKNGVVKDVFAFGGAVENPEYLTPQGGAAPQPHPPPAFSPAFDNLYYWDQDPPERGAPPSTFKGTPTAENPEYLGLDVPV
T3 sequence (O08775 786-1343): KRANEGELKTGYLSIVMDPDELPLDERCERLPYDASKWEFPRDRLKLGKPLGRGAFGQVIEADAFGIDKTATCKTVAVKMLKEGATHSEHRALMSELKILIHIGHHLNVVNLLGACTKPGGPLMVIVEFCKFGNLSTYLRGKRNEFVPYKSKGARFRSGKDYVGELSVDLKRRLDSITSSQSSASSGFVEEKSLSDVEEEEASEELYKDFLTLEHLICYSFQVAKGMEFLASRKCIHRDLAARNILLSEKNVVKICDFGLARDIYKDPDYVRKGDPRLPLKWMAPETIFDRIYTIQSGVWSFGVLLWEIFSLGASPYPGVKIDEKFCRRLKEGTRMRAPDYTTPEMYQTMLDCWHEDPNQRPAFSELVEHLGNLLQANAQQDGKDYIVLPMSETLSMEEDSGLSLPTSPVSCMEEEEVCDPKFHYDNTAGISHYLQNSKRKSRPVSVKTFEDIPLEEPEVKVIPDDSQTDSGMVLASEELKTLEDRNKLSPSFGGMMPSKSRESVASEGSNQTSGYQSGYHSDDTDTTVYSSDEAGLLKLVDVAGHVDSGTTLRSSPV

Row | SMILES | IC50 (CDK1) [nM] | IC50 (HER2) [nM] | IC50 (VEGFR2) [nM] | IC50 (Aurora-A) [nM] | IC50 (A375 malignant melanoma) [nM] | IC50 (HCT-116 colon carcinoma) [nM] | IC50 [1] [nM]
1 | CCNC(=O)c1cncc(C=Cc2c[nH]nc2-c2nc3ccc(OC)cc3[nH]2)c1 [Cpd 11, N-ethyl-5-{2-[3-(6-methoxy-1H-benzoimidazol-2-yl)-1H-pyrazol-4-yl]-vinyl}-nicotinamide] | 111 | 36600 | 1350 | > 100000 | 3620 | 2460 | 3700
2 | COC(=O)c1cncc(C=Cc2c[nH]nc2-c2nc3ccc(OC)cc3[nH]2)c1 [Cpd 9, 5-{2-[3-(6-methoxy-1H-benzoimidazol-2-yl)-1H-pyrazol-4-yl]-vinyl}-nicotinic acid methyl ester] | 886 |  | 1280 | > 100000 | 3100 | 3130 | 4370
3 | COc1ccc2nc(-c3n[nH]cc3C=Cc3cncc4ccccc34)[nH]c2c1 [Cpd 6, 4-{2-[3-(6-methoxy-1H-benzoimidazol-2-yl)-1H-pyrazol-4-yl]-vinyl}-isoquinoline] | 148 |  | 613 |  | 2960 | 2680 | 2820
4 | COc1ccc2nc(-c3n[nH]cc3C=Cc3cnccc3C)[nH]c2c1 [Cpd 5, 6-methoxy-2-{4-[2-(4-methyl-pyridin-3-yl)-vinyl]-1H-pyrazol-3-yl}-1H-benzoimidazole] | 157 |  |  | 549 | 4300 | 3190 | 2760
5 | COc1ccc2nc(-c3n[nH]cc3C=Cc3cncc(C#N)c3)[nH]c2c1 [Cpd 7, 5-{2-[3-(6-methoxy-1H-benzoimidazol-2-yl)-1H-pyrazol-4-yl]-vinyl}-nicotinonitrile] | > 1000 |  | 1730 | 4190 |  |  | 

The next compounds have a lower IC50 (CDK1) than those just listed; values first:

Row | IC50 (CDK1) [nM] | IC50 (HER2) [nM] | IC50 (VEGFR2) [nM] | IC50 (Aurora-A) [nM] | IC50 (A375 malignant melanoma) [nM] | IC50 (HCT-116 colon carcinoma) [nM] | IC50 [1] [nM] | SMILES
6 | 23 | 6840 | 636 | 625 | 1030 | 1040 | 992 | COc1ccc2nc(-c3n[nH]cc3C=Cc3ccc(N)nc3)[nH]c2c1 [Cpd 3, 5-{2-[3-(6-Methoxy-1H-benzoimidazol-2-yl)-1H-pyrazol-4-yl]-vinyl}-pyridin-2-ylamine]
7 | 32.8 |  | 967 | 513 | 2500 | 2160 | 1800 | COc1ccc2nc(-c3n[nH]cc3C=Cc3cccnc3)[nH]c2c1 [Cpd 2, 6-methoxy-2-[4-(2-pyridin-3-yl-vinyl)-1H-pyrazol-3-yl]-1H-benzoimidazole]
8 | 29.1 | 9320 | 286 | > 10000 | 864 | 194 | 464 | CN1CCN(c2ccc3nc(-c4n[nH]cc4C=Cc4cccnc4)[nH]c3c2)CC1 [Cpd 8, 6-(4-methyl-piperazin-1-yl)-2-[4-(2-pyridin-3-yl-vinyl)-1H-pyrazol-3-yl]-1H-benzoimidazole]
9 | 46.6 | 12000 | 653 | 399 | 913 | 748 | 886 | COc1cncc(C=Cc2c[nH]nc2-c2nc3ccc(OC)cc3[nH]2)c1 [Cpd 10, 6-methoxy-2-{4-[2-(5-methoxy-pyridin-3-yl)-vinyl]-1H-pyrazol-3-yl}-1H-benzoimidazole]
10 | 4.59 | 3030 | 821 | 588 | 553 | 187 | 615 | CCNCc1cncc(C=Cc2c[nH]nc2-c2nc3ccc(OC)cc3[nH]2)c1 [Cpd 1, ethyl-(5-{2-[3-(6-methoxy-1H-benzoimidazol-2-yl)-1H-pyrazol-4-yl]-vinyl}-pyridin-3-ylmethyl)-amine]

— patent US7638518B2, “Substituted pyrazole kinase inhibitors” (Janssen Pharmaceutica, priority 2006, dated 2009)
